The assay relates to rat and human α9α10 nAChRs. Nature of the assay: ACh-evoked currents in Xenopus oocytes expressing rat or human α9α10 nAChRs. The following applies: 100 µM ACh. It counts as cell-based.

The values below come from PMC3433650 (Journal of neurochemistry, 2012).

Each structure is given as a SMILES string.

Take `CC(=O)OCC[N+](C)(C)C` [ACh, Acetylcholine chloride]: the “ACh-evoked current, rat vs human α9α10 (in words)” value is “generally evoked larger currents in Xenopus oocytes expressing rat α9α10 nAChRs than in oocytes expressing human α9α10 nAChRs”.
